Measurements from paper PMC13295013 (Nature chemical biology, 2026).

Legend:
Type in all cases: cell-based
[1] = test system: pMek levels in CIAR-293 cells; assay: pMek levels in CIAR-293 cells treated with A115 or DMSO; conditions: A115 1 h
[2] = test system: pErk levels in Mia PaCa-2 cells; assay: Raf inhibitor and Mek inhibitor cotreatments, pErk, Mia PaCa-2 cells
[3] = test system: pMek levels in mutant KRas-expressing lines; assay: pMek levels in mutant KRas-expressing cell lines treated with Mek inhibitors; conditions: multiple mutant KRas-expressing lines, 4 h
[4] = target: high-affinity Raf:Mek interactions (Homo sapiens, UniProt Q02750); assay: Co-immunoprecipitation of Raf with Mek from Mia PaCa-2 cells treated with partial inhibitory doses of Mek inhibitors; conditions: 4 h
[5] = test system: pErk levels in HCT-116 (G13D KRas/WT Raf) cells; assay: LXH-254 titration, pErk western blot, HCT-116 cells
[6] = test system: pErk levels in MDA-MB-231 cells; assay: LXH-254 titration, pErk western blot, MDA-MB-231 cells; conditions: 4 h LXH-254 treatment
[7] = test system: pErk levels in MDA-MB-453 cells; assay: LXH-254 titration, pErk western blot, MDA-MB-453 cells; conditions: 4 h LXH-254 treatment
[8] = test system: pErk levels in Mia PaCa-2 cells; assay: LXH-254 titration, pErk western blot, Mia PaCa-2 cells; conditions: at 10–50 μM LXH-254
[9] = test system: pErk levels in CIAR-293 cells; assay: Inhibitor titrations in CIAR-293 cells (pErk); conditions: A115 or DMSO 1 h, then LXH-254 3 h
[10] = target: ARaf:CRaf heterodimers (Homo sapiens, UniProt P04049+P10398); assay: Co-immunoprecipitation of ARaf with CRaf in MiaPaCa-2 cells treated with LXH-254; conditions: Mia PaCa-2 cells
[11] = test system: pErk levels in HCT-116 cells (single encorafenib-occupied Raf dimers); assay: Encorafenib and LXH-254 cotreatment, pErk, HCT-116 cells; conditions: encorafenib 1 h, then LXH-254 3 h
[12] = test system: pErk levels in Mia Paca-2 cells (single encorafenib-occupied Raf dimers); assay: Encorafenib and LXH-254 cotreatment, pErk, Mia Paca-2 cells; conditions: encorafenib 1 h, then LXH-254 3 h
[13] = test system: pErk levels in MDA-MB-453 cells (single encorafenib-occupied Raf dimers); assay: Encorafenib and LXH-254 cotreatment, pErk, MDA-MB-453 cells; conditions: encorafenib 1 h, then LXH-254 3 h
[14] = test system: pErk levels in MDA-MB-453 cells; assay: Bliss synergy analysis of cobimetinib/LXH-254 pErk titration data, MDA-MB-453 cells; conditions: combination with LXH-254, MDA-MB-453 cells, p < 0.05
[15] = Mia Paca-2 cells, partial (~85%) inhibitory dose 1 h, then LXH-254 3 h

high-affinity Raf:Mek interactions, sequence (Q02750 whole entry): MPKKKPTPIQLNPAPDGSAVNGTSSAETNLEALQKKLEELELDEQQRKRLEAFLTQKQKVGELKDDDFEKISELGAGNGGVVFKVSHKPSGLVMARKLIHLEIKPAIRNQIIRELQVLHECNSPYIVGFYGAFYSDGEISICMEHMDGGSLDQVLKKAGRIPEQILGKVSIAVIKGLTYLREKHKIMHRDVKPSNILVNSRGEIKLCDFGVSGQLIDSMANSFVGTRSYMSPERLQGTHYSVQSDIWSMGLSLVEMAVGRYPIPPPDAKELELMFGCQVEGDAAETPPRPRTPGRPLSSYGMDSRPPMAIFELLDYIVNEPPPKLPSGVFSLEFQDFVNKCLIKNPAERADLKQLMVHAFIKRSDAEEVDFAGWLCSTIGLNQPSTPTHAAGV
ARaf:CRaf heterodimers, sequence (P10398 whole entry): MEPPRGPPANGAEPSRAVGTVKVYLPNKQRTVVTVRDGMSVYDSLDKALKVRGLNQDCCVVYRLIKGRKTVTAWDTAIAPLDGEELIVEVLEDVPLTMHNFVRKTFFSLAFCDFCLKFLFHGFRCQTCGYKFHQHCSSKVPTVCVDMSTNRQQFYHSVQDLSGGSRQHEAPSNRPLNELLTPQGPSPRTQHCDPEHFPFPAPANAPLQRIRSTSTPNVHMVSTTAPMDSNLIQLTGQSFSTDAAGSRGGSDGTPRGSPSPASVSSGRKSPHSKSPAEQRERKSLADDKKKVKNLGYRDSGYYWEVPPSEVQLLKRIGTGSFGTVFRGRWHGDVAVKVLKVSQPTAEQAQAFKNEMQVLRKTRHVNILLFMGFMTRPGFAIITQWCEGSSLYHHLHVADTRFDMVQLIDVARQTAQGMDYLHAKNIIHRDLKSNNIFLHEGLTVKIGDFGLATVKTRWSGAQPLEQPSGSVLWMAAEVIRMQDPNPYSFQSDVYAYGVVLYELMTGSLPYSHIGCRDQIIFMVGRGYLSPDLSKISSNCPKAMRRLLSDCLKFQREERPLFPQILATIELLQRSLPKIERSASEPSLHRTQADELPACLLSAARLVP
ARaf:CRaf heterodimers, sequence (P04049 whole entry): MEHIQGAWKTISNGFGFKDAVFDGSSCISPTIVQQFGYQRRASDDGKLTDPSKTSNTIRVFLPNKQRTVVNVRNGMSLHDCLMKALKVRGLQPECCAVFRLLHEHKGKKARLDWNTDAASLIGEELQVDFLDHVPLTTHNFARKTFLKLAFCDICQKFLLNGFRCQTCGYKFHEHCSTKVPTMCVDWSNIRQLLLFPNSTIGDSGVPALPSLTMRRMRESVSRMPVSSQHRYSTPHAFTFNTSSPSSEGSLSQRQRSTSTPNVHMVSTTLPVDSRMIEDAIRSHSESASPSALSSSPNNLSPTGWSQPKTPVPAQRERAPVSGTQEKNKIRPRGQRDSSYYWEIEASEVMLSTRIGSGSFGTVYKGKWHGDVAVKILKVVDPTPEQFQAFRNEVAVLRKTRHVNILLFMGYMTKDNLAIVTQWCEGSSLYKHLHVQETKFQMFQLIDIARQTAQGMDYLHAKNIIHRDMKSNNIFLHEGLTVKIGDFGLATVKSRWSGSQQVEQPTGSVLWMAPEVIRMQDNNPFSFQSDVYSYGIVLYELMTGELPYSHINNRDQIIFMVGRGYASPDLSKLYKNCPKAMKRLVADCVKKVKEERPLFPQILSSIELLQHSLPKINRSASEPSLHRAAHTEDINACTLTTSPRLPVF

## CN(C)CC#Cc1ccc(OCCCc2sc(N3CCc4cccc(C(=O)Nc5nc6ccccc6s5)c4C3)nc2C(=O)O)c(F)c1 [A115]
[1]
  pMek levels upon A115 treatment versus DMSO: four-fold higher

## CNS(=O)(=O)Nc1nccc(Cc2c(C)c3ccc(Oc4ncccn4)cc3oc2=O)c1F [CH5126766]
[2]; [15]
  effect of Mek inhibitor pretreatment on LXH-254 pErk IC50 / inhibitory activity: potently antagonizes
[3]
  effect on pMek (Mek activation) relative to DMSO: either reduced or minimally affected
[4]
  effect on high-affinity Raf:Mek interactions: promoted

## Cc1ccc(NC(=O)c2ccnc(C(F)(F)F)c2)cc1-c1cc(OCCO)nc(N2CCOCC2)c1 [LXH-254]
[5]; 4 h LXH-254 treatment
  pErk IC50: double-digit nanomolar
[5]; time course, 32 nM LXH-254, n=1
  treatment time at which maximal and stable inhibition of downstream signaling (pErk) was achieved: 4 h
[6]
  pErk IC50: double-digit nanomolar
[7]
  pErk IC50: micromolar
[8]
  decrease of pErk levels: > 80%
[9]
  change of pErk IC50 in A115-treated versus DMSO-treated CIAR-293 cells: four-fold lower
[10]
  LXH-254 concentrations at which ARaf was recruited into heterodimers with CRaf: 10 to 50 µM
[11]
  decrease in LXH-254 pErk IC50 after encorafenib pretreatment and washout: 2-3 fold
[12]
  decrease in LXH-254 pErk IC50 after encorafenib pretreatment and washout: ~ 30 fold
[13]
  decrease in LXH-254 pErk IC50 after encorafenib pretreatment and washout: ~ 20 fold
[2]; Homo sapiens, MIA PaCa-2, read-out: LXH-254 pErk IC50, DMSO pretreatment
  IC50: 590 nM

## O=C(c1ccc(F)c(F)c1Nc1ccc(I)cc1F)N1CC(O)([C@@H]2CCCCN2)C1 [cobimetinib]
[2]; [15]
  increase in LXH-254's potency (pErk IC50) after Mek inhibitor pretreatment: ~ 4 fold
[14]
  average Bliss score: 8.72
[3]
  effect on pMek (Mek activation) relative to DMSO: greatly enhanced
[4]
  effect on high-affinity Raf:Mek interactions: disrupted
